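Briefly, cells in 96-well plates were exposed to five compound concentrations for 48 h, and endpoints were estimated by linear interpolation. Definition used: TGI = concentration required for complete inhibition of growth.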
Key:
Test in all cases: NCI-60 cell line screen, 48 h
MDA-MB-435 = system: MDA-MB-435
COLO 205 colon = system: COLO 205 colon
SK-MEL-2 melanoma = system: SK-MEL-2 melanoma
UO-31 renal = system: UO-31 renal
NCI-H23 lung = system: NCI-H23 lung
A498 renal = system: A498 renal
SK-MEL-5 melanoma = system: SK-MEL-5 melanoma
CAKI-1 renal = system: CAKI-1 renal
HCT-116 colon = system: HCT-116 colon
NCI-H460 lung = system: NCI-H460 lung
NCI/ADR-RES ovarian = system: NCI/ADR-RES ovarian
SK-MEL-28 melanoma = system: SK-MEL-28 melanoma
ACHN renal = system: ACHN renal
KM12 colon = system: KM12 colon
A549 NSCLC = system: A549 NSCLC
DU-145 prostate = system: DU-145 prostate
K-562 leukemia = system: K-562 leukemia
RPMI-8226 leukemia = system: RPMI-8226 leukemia
SW-620 colon = system: SW-620 colon
OVCAR-3 ovarian = system: OVCAR-3 ovarian
NCI-H226 lung = system: NCI-H226 lung
SK-OV-3 ovarian = system: SK-OV-3 ovarian
SNB-19 CNS = system: SNB-19 CNS
SF-268 CNS = system: SF-268 CNS
SN12C renal = system: SN12C renal
OVCAR-4 ovarian = system: OVCAR-4 ovarian
OVCAR-5 ovarian = system: OVCAR-5 ovarian
PC-3 prostate = system: PC-3 prostate
OVCAR-8 ovarian = system: OVCAR-8 ovarian
MDA-N = system: MDA-N
HCC-2998 colon = system: HCC-2998 colon
SR leukemia = system: SR leukemia
NCI-H522 lung = system: NCI-H522 lung
HOP-62 NSCLC = system: HOP-62 NSCLC
T-47D breast = system: T-47D breast
IGROV1 ovarian = system: IGROV1 ovarian
BT-549 breast = system: BT-549 breast
CCRF-CEM leukemia = system: CCRF-CEM leukemia
TK-10 renal = system: TK-10 renal
UACC-62 melanoma = system: UACC-62 melanoma
U251 CNS = system: U251 CNS
RXF 393 renal = system: RXF 393 renal
786-0 renal = system: 786-0 renal
SNB-75 CNS = system: SNB-75 CNS
UACC-257 melanoma = system: UACC-257 melanoma
LOX IMVI melanoma = system: LOX IMVI melanoma
HCT-15 colon = system: HCT-15 colon
MOLT-4 leukemia = system: MOLT-4 leukemia
MALME-3M melanoma = system: MALME-3M melanoma
SF-295 CNS = system: SF-295 CNS
SF-539 CNS = system: SF-539 CNS
M14 melanoma = system: M14 melanoma
EKVX NSCLC = system: EKVX NSCLC
MDA-MB-231 breast = system: MDA-MB-231 breast
MCF7 breast = system: MCF7 breast
HOP-92 NSCLC = system: HOP-92 NSCLC
HS 578T breast = system: HS 578T breast
HL-60(TB) leukemia = system: HL-60(TB) leukemia
HT29 colon = system: HT29 colon

## COC(=O)[C@]12CSC[C@H]1C[C@H](c1ccccc1OC)N2
MDA-MB-435
  TGI: > 100 µM
COLO 205 colon
  TGI: > 100 µM
SK-MEL-2 melanoma
  TGI: > 100 µM
UO-31 renal
  TGI: > 100 µM
NCI-H23 lung
  TGI: > 100 µM
A498 renal
  TGI: > 100 µM
SK-MEL-5 melanoma
  TGI: > 100 µM
CAKI-1 renal
  TGI: > 100 µM
HCT-116 colon
  TGI: > 100 µM
NCI-H460 lung
  TGI: > 100 µM
NCI/ADR-RES ovarian
  TGI: > 100 µM
SK-MEL-28 melanoma
  TGI: > 100 µM
ACHN renal
  TGI: > 100 µM
KM12 colon
  TGI: > 100 µM
A549 NSCLC
  TGI: > 100 µM
DU-145 prostate
  TGI: > 100 µM
K-562 leukemia
  TGI: > 100 µM
RPMI-8226 leukemia
  TGI: > 100 µM
SW-620 colon
  TGI: > 100 µM
OVCAR-3 ovarian
  TGI: > 100 µM
NCI-H226 lung
  TGI: > 100 µM
SK-OV-3 ovarian
  TGI: > 100 µM
SNB-19 CNS
  TGI: > 100 µM
SF-268 CNS
  TGI: > 100 µM
SN12C renal
  TGI: > 100 µM
OVCAR-4 ovarian
  TGI: > 100 µM
OVCAR-5 ovarian
  TGI: > 100 µM
PC-3 prostate
  TGI: > 100 µM
OVCAR-8 ovarian
  TGI: > 100 µM
MDA-N
  TGI: > 100 µM
HCC-2998 colon
  TGI: > 100 µM
SR leukemia
  TGI: > 100 µM
NCI-H522 lung
  TGI: > 100 µM
HOP-62 NSCLC
  TGI: > 100 µM
T-47D breast
  TGI: > 100 µM
IGROV1 ovarian
  TGI: > 100 µM
BT-549 breast
  TGI: > 100 µM
CCRF-CEM leukemia
  TGI: > 100 µM
TK-10 renal
  TGI: > 100 µM
UACC-62 melanoma
  TGI: > 100 µM
U251 CNS
  TGI: > 100 µM
RXF 393 renal
  TGI: > 100 µM
786-0 renal
  TGI: > 100 µM
SNB-75 CNS
  TGI: > 100 µM
UACC-257 melanoma
  TGI: > 100 µM
LOX IMVI melanoma
  TGI: > 100 µM
HCT-15 colon
  TGI: > 100 µM
MOLT-4 leukemia
  TGI: > 100 µM
MALME-3M melanoma
  TGI: > 100 µM
SF-295 CNS
  TGI: > 100 µM
SF-539 CNS
  TGI: > 100 µM
M14 melanoma
  TGI: > 100 µM
EKVX NSCLC
  TGI: > 100 µM
MDA-MB-231 breast
  TGI: > 100 µM
MCF7 breast
  TGI: > 100 µM

## O=C(O)CCSCc1ccc(I)cc1
MDA-MB-435
  TGI: > 100 µM
COLO 205 colon
  TGI: > 100 µM
SK-MEL-2 melanoma
  TGI: > 100 µM
UO-31 renal
  TGI: > 100 µM
NCI-H23 lung
  TGI: > 100 µM
A498 renal
  TGI: > 100 µM
SK-MEL-5 melanoma
  TGI: > 100 µM
CAKI-1 renal
  TGI: > 100 µM
HCT-116 colon
  TGI: > 100 µM
NCI-H460 lung
  TGI: > 100 µM
NCI/ADR-RES ovarian
  TGI: > 100 µM
SK-MEL-28 melanoma
  TGI: > 100 µM
ACHN renal
  TGI: > 100 µM
KM12 colon
  TGI: > 100 µM
A549 NSCLC
  TGI: > 100 µM
DU-145 prostate
  TGI: > 100 µM
K-562 leukemia
  TGI: > 100 µM
RPMI-8226 leukemia
  TGI: > 100 µM
SW-620 colon
  TGI: > 100 µM
OVCAR-3 ovarian
  TGI: > 100 µM
NCI-H226 lung
  TGI: > 100 µM
SK-OV-3 ovarian
  TGI: > 100 µM
SNB-19 CNS
  TGI: > 100 µM
SF-268 CNS
  TGI: > 100 µM
SN12C renal
  TGI: > 100 µM
OVCAR-4 ovarian
  TGI: > 100 µM
OVCAR-5 ovarian
  TGI: > 100 µM
HOP-92 NSCLC
  TGI: > 100 µM
PC-3 prostate
  TGI: > 100 µM
OVCAR-8 ovarian
  TGI: > 100 µM
MDA-N
  TGI: > 100 µM
HCC-2998 colon
  TGI: > 100 µM
HS 578T breast
  TGI: > 100 µM
NCI-H522 lung
  TGI: > 100 µM
HOP-62 NSCLC
  TGI: > 100 µM
T-47D breast
  TGI: > 100 µM
IGROV1 ovarian
  TGI: > 100 µM
BT-549 breast
  TGI: > 100 µM
CCRF-CEM leukemia
  TGI: > 100 µM
TK-10 renal
  TGI: > 100 µM
UACC-62 melanoma
  TGI: > 100 µM
HL-60(TB) leukemia
  TGI: > 100 µM
U251 CNS
  TGI: > 100 µM
RXF 393 renal
  TGI: > 100 µM
786-0 renal
  TGI: > 100 µM
SNB-75 CNS
  TGI: > 100 µM
UACC-257 melanoma
  TGI: > 100 µM
LOX IMVI melanoma
  TGI: > 100 µM
HCT-15 colon
  TGI: > 100 µM
MOLT-4 leukemia
  TGI: > 100 µM
MALME-3M melanoma
  TGI: > 100 µM
HT29 colon
  TGI: > 100 µM
SF-295 CNS
  TGI: > 100 µM
M14 melanoma
  TGI: > 100 µM
EKVX NSCLC
  TGI: > 100 µM
MDA-MB-231 breast
  TGI: > 100 µM
MCF7 breast
  TGI: > 100 µM

## Cn1nnnc1N/N=C/c1ccccc1
MDA-MB-435
  TGI: > 10 µM
COLO 205 colon
  TGI: > 10 µM
SK-MEL-2 melanoma
  TGI: > 10 µM
UO-31 renal
  TGI: > 10 µM
NCI-H23 lung
  TGI: > 10 µM
SK-MEL-5 melanoma
  TGI: > 10 µM
CAKI-1 renal
  TGI: > 10 µM
HCT-116 colon
  TGI: > 10 µM
NCI-H460 lung
  TGI: > 10 µM
NCI/ADR-RES ovarian
  TGI: > 10 µM
SK-MEL-28 melanoma
  TGI: > 10 µM
ACHN renal
  TGI: > 10 µM
KM12 colon
  TGI: > 10 µM
A549 NSCLC
  TGI: > 10 µM
DU-145 prostate
  TGI: > 10 µM
K-562 leukemia
  TGI: > 10 µM
RPMI-8226 leukemia
  TGI: > 10 µM
SW-620 colon
  TGI: > 10 µM
OVCAR-3 ovarian
  TGI: > 10 µM
NCI-H226 lung
  TGI: > 10 µM
SK-OV-3 ovarian
  TGI: > 10 µM
SNB-19 CNS
  TGI: > 10 µM
SF-268 CNS
  TGI: > 10 µM
SN12C renal
  TGI: > 10 µM
OVCAR-4 ovarian
  TGI: > 10 µM
OVCAR-5 ovarian
  TGI: > 10 µM
HOP-92 NSCLC
  TGI: > 10 µM
PC-3 prostate
  TGI: > 10 µM
OVCAR-8 ovarian
  TGI: > 10 µM
MDA-N
  TGI: > 10 µM
HCC-2998 colon
  TGI: > 10 µM
SR leukemia
  TGI: > 10 µM
HS 578T breast
  TGI: > 10 µM
NCI-H522 lung
  TGI: > 10 µM
HOP-62 NSCLC
  TGI: > 10 µM
T-47D breast
  TGI: > 10 µM
IGROV1 ovarian
  TGI: > 10 µM
CCRF-CEM leukemia
  TGI: > 10 µM
TK-10 renal
  TGI: > 10 µM
UACC-62 melanoma
  TGI: > 10 µM
HL-60(TB) leukemia
  TGI: > 10 µM
U251 CNS
  TGI: > 10 µM
RXF 393 renal
  TGI: > 10 µM
786-0 renal
  TGI: > 10 µM
SNB-75 CNS
  TGI: > 10 µM
UACC-257 melanoma
  TGI: > 10 µM
LOX IMVI melanoma
  TGI: > 10 µM
HCT-15 colon
  TGI: > 10 µM
MOLT-4 leukemia
  TGI: > 10 µM
HT29 colon
  TGI: > 10 µM
SF-295 CNS
  TGI: > 10 µM
SF-539 CNS
  TGI: > 10 µM
M14 melanoma
  TGI: > 10 µM
EKVX NSCLC
  TGI: > 10 µM
MDA-MB-231 breast
  TGI: > 10 µM
MCF7 breast
  TGI: > 10 µM
